According to US7947854B2, “Bis-cationic compounds and use thereof” (The University of Sydney, priority 2003, dated 2011):
≈ marks a conversion by molar mass, not a printed value. Where two headings read alike, the source gives them in different places.

Legend:
Type in all cases: cell-based
T. mentagrophytes = experiment: Susceptibility of dermatophytes, broth microdilution NCCLS M38-P; settings: 100% growth inhibition, 28° C.; for MIC: Trichophyton mentagrophytes
Description: (§1) Isolates were tested using the method described in the National Committee for Clinical Laboratory Standards (NCCLS) document M38-P for filamentous fungi, with dermatophyte specific modifications described by Fernández-Torres et al, Current topics in Medical Mycology, 14-19 Feb. 1999.
(§2) Five dermatophyte isolates were, namely; T. rubrum, T. mentagrophytes, T. tonsurans, M. canis and M. gypseum, all of which produce lipases and some, phospholipase. These isolates were tested by the broth microdilution method according to NCCLS document M38-P, for activity against selected antifungal agents. In addition, ten randomly selected isolates of T. tonsurans were also tested. All isolates were maintained on SDA at 28° C. Candida parapsilosis (ATCC 20019) was used as the reference control is organism.
(§3) The microdilution plates used were a single lot of RPMI 1640 basal medium (JRH bioScience Inc. Lenexa, Kans., USA) with L-glutamine and without sodium bicarbonate, buffered to pH 7.0, at 25° C., with 0.165 M (MOPS) morpholinepropanesulfonic acid (Sigma).
(§4) Powdered drugs were dissolved in 100% dimethyl sulfoxide (DMSO), at concentrations 100 times higher than the final test concentration. All compounds were prepared in 100% (DMSO). For ITRA and TRB, two-fold drug dilutions were prepared in 100% DMSO at 100 times the final concentration, followed by further dilution 1:50 in RPMI medium, to yield 2× the final strength required for the test.
(§5) Fungal cultures were subcultured onto Potato Dextrose Agar and grown at 28° C. for 7-10 days. Fungal suspensions were covered with 5 ml of distilled water, and then colonies were scraped off with cotton tipped swabs. The resulting mixture of conidia and hyphae elements was withdrawn, transferred to a sterile tube and then vortexed with glass beads. After the particles settled, the upper homogeneous suspension was collected and its density adjusted by a densitometer to a 0.5 McFarland standard at the wavelength of 530 nm (80-85% transmittance). These stock suspensions were then diluted 1:50 with RPMI medium to obtain final working inoculum concentration ranging from 0.3×10^4 to 9×10^4 CFU/ml. Inoculum quantification was performed by plating 100 μl of the 1:1000 dilution of the adjusted inoculum on SDA plates, incubated at 28° C., and after 7 days of incubation, the colonies were counted.
(§6) Testing was based on NCCLS M38-P document for testing filamentous moulds. Testing was carried out in sterile 96-well flat bottomed microtitre plate. Columns 1 and 3 to 12 were filled with 100 μl of RPMI medium, leaving column 2 unfilled. Columns 1, 2 and 3 were filled with 100 μl of 2× drug concentration. Serial dilutions were then made by transferring 100 μl from column 3 to each column up to column 11, and 100 μl from column 11 was discarded. Column 12 served as drug free growth control. Finally, 100 μl of inoculum suspension was added to all wells except column 1, which acted as sterility control (Columns 1 and 12 served as sterility and growth control respectively). Plates were incubated at 28° C. for 7 days, and read at 3 days and 7 days of incubation. All testing was performed in duplicate, on three separate occasions.
(§7) Growth in microtitre trays were read by visual inspection by using an illuminated-reversed mirror. Growth in each well was compared with the “growth control” drug free well. The MIC end point for all the drugs was chosen to be the first well with 100% growth inhibition (i.e. the lowest drug concentration inhibiting growth).

M. gypseum = experiment: as above; settings: for MIC: Nannizzia gypsea
Description: as §1, §2, §3, §4, §5, §6, §7

M. canis = experiment: as above; settings: for MIC: Microsporum canis
Description: as §1, §2, §3, §4, §5, §6, §7

T. rubrum = experiment: as above; settings: for MIC: Trichophyton rubrum
Description: as §1, §2, §3, §4, §5, §6, §7

T. tonsurans = experiment: as above; settings: for MIC: Trichophyton tonsurans
Description: as §1, §2, §3, §4, §5, §6, §7

[1] = tested on: ten randomly selected isolates of T. tonsurans; experiment: Susceptibility of ten T. tonsurans isolates, broth microdilution NCCLS M38-P; settings: for MIC: Trichophyton tonsurans
Description: as §1, §2, §3, §4, §5, §6, §7

[2] = read-out: MIC GM, T. mentagrophyte
[3] = read-out: MIC Mean, T. mentagrophyte
[4] = 100% growth inhibition, 28° C., read-out: MIC GM, M. gypseum
[5] = 100% growth inhibition, 28° C., read-out: MIC Mean, M. gypseum
[6] = 100% growth inhibition, 28° C., read-out: MIC GM, M. canis
[7] = 100% growth inhibition, 28° C., read-out: MIC Mean, M. canis
[8] = 100% growth inhibition, 28° C., read-out: MIC GM, T. rubrum
[9] = 100% growth inhibition, 28° C., read-out: MIC Mean, T. rubrum
[10] = 100% growth inhibition, 28° C., read-out: MIC GM, T. tonsurans
[11] = 100% growth inhibition, 28° C., read-out: MIC Mean, T. tonsurans
[12] = T. tonsurans 1, read-out: MIC GM
[13] = T. tonsurans 2, read-out: MIC GM
[14] = T. tonsurans 2, read-out: MIC Mean
[15] = T. tonsurans 4, read-out: MIC Mean
[16] = T. tonsurans 5, read-out: MIC GM
[17] = T. tonsurans 5, read-out: MIC Mean
[18] = T. tonsurans 6, read-out: MIC GM
[19] = T. tonsurans 6, read-out: MIC Mean
[20] = T. tonsurans 7, read-out: MIC GM
[21] = T. tonsurans 7, read-out: MIC Mean
[22] = T. tonsurans 8, read-out: MIC GM
[23] = T. tonsurans 8, read-out: MIC Mean
[24] = T. tonsurans 9, read-out: MIC GM
[25] = T. tonsurans 9, read-out: MIC Mean
[26] = T. tonsurans 10, read-out: MIC Mean
[27] = T.tonsurans 3, read-out: MIC GM
[28] = T.tonsurans 3, read-out: MIC Mean
[29] = read-out: MIC Mean, T. tonsurans 1

CCC(C)n1ncn(-c2ccc(N3CCN(c4ccc(OCC5COC(Cn6cncn6)(c6ccc(Cl)cc6Cl)O5)cc4)CC3)cc2)c1=O (centres unmarked) [Itraconazole]
MIC Range, T. mentagrophyte (T. mentagrophytes): 0.06 to 1.0 µg/mL
MIC (T. mentagrophytes; [2]): 0.26 µg/mL (≈ 0.368 µM)
MIC (T. mentagrophytes; [3]): 0.355 µg/mL (≈ 0.503 µM)
MIC Range, M. gypseum (M. gypseum; 100% growth inhibition, 28° C.): 0.25 to 2.0 µg/mL
MIC (M. gypseum; [4]): 0.74 µg/mL (≈ 1.05 µM)
MIC (M. gypseum; [5]): 0.93 µg/mL (≈ 1.32 µM)
MIC (M. gypseum; Table 9, read-out: MIC M. gypseum): 0.9 µg/mL (≈ 1.28 µM)
MIC Range, M. canis (M. canis; 100% growth inhibition, 28° C.): 0.125 to 2.0 µg/mL
MIC (M. canis; [6]): 0.42 µg/mL (≈ 0.595 µM)
MIC (M. canis; [7]): 0.63 µg/mL (≈ 0.893 µM)
MIC (M. canis; Table 9, read-out: MIC M. canis): 0.6 µg/mL (≈ 0.85 µM)
MIC Range, T. rubrum (T. rubrum; 100% growth inhibition, 28° C.): 0.03 to 1.0 µg/mL
MIC (T. rubrum; [8]): 0.171 µg/mL (≈ 0.242 µM)
MIC (T. rubrum; [9]): 0.276 µg/mL (≈ 0.391 µM)
MIC (T. rubrum; Table 9, read-out: MIC T. rubrum): 0.3 µg/mL (≈ 0.425 µM)
MIC Range, T. tonsurans (T. tonsurans; 100% growth inhibition, 28° C.): 0.25 to 2.0 µg/mL
MIC (T. tonsurans; [10]): 0.84 µg/mL (≈ 1.19 µM)
MIC (T. tonsurans; [11]): 1.06 µg/mL (≈ 1.5 µM)
MIC (T. tonsurans; Table 9, read-out: MIC T. tonsurans): 1.1 µg/mL (≈ 1.56 µM)
MIC Range ([1]; T. tonsurans 1): 0.03 to 0.125 µg/mL
MIC Range ([1]; T. tonsurans 2): 0.125 to 2.0 µg/mL
MIC Range ([1]; T. tonsurans 4): 0.5 µg/mL (≈ 0.709 µM)
MIC Range ([1]; T. tonsurans 5): 0.25 to 0.5 µg/mL
MIC Range ([1]; T. tonsurans 6): 0.25 to 2.0 µg/mL
MIC Range ([1]; T. tonsurans 7): 0.5 to 1.0 µg/mL
MIC Range ([1]; T. tonsurans 8): 0.25 to 2.0 µg/mL
MIC Range ([1]; T. tonsurans 9): 0.125 to 1.0 µg/mL
MIC Range ([1]; T. tonsurans 10): 0.25 to 1.0 µg/mL
MIC Range ([1]; T.tonsurans 3): 0.06 to 0.5 µg/mL
MIC [1, 12]: 0.12 µg/mL (≈ 0.17 µM)
MIC [1, 13]: 0.397 µg/mL (≈ 0.563 µM)
MIC [1, 14]: 0.604 µg/mL (≈ 0.856 µM)
MIC ([1]; T. tonsurans 4, read-out: MIC GM): 0.5 µg/mL (≈ 0.709 µM)
MIC [1, 15]: 0.5 µg/mL (≈ 0.709 µM)
MIC [1, 16]: 0.44 µg/mL (≈ 0.624 µM)
MIC [1, 17]: 0.46 µg/mL (≈ 0.652 µM)
MIC [1, 18]: 0.71 µg/mL (≈ 1.01 µM)
MIC [1, 19]: 0.96 µg/mL (≈ 1.36 µM)
MIC [1, 20]: 0.56 µg/mL (≈ 0.794 µM)
MIC [1, 21]: 0.58 µg/mL (≈ 0.822 µM)
MIC [1, 22]: 0.79 µg/mL (≈ 1.12 µM)
MIC [1, 23]: 1.08 µg/mL (≈ 1.53 µM)
MIC [1, 24]: 0.445 µg/mL (≈ 0.631 µM)
MIC [1, 25]: 0.52 µg/mL (≈ 0.737 µM)
MIC ([1]; T. tonsurans 10, read-out: MIC GM): 0.445 µg/mL (≈ 0.631 µM)
MIC [1, 26]: 0.5 µg/mL (≈ 0.709 µM)
MIC [1, 27]: 0.196 µg/mL (≈ 0.278 µM)
MIC [1, 28]: 0.27 µg/mL (≈ 0.383 µM)
MIC [1, 29]: 0.21 µg/mL (≈ 0.298 µM)

CN(C/C=C/C#CC(C)(C)C)Cc1cccc2ccccc12 [Terbinafine]
MIC Range, T. mentagrophyte (T. mentagrophytes): 0.03 to 0.06 µg/mL
MIC (T. mentagrophytes; [2]): 0.034 µg/mL (≈ 0.117 µM)
MIC (T. mentagrophytes; [3]): 0.035 µg/mL (≈ 0.12 µM)
MIC Range, M. gypseum (M. gypseum; 100% growth inhibition, 28° C.): 0.015 to 0.25 µg/mL
MIC (M. gypseum; [4]): 0.077 µg/mL (≈ 0.264 µM)
MIC (M. gypseum; [5]): 0.122 µg/mL (≈ 0.419 µM)
MIC Range, M. canis (M. canis; 100% growth inhibition, 28° C.): 0.03 µg/mL (≈ 0.103 µM)
MIC (M. canis; [6]): 0.03 µg/mL (≈ 0.103 µM)
MIC (M. canis; [7]): 0.03 µg/mL (≈ 0.103 µM)
MIC Range, T. rubrum (T. rubrum; 100% growth inhibition, 28° C.): 0.007 to 0.06 µg/mL
MIC (T. rubrum; [8]): 0.026 µg/mL (≈ 0.0892 µM)
MIC (T. rubrum; [9]): 0.032 µg/mL (≈ 0.11 µM)
MIC Range, T. tonsurans (T. tonsurans; 100% growth inhibition, 28° C.): 0.015 to 0.06 µg/mL
MIC (T. tonsurans; [10]): 0.024 µg/mL (≈ 0.0824 µM)
MIC (T. tonsurans; [11]): 0.03 µg/mL (≈ 0.103 µM)
MIC Range ([1]; T. tonsurans 1): 0.015 to 0.06 µg/mL
MIC Range ([1]; T. tonsurans 2): 0.015 to 0.06 µg/mL
MIC Range ([1]; T. tonsurans 4): 0.015 to 0.06 µg/mL
MIC Range ([1]; T. tonsurans 5): 0.03 to 0.06 µg/mL
MIC Range ([1]; T. tonsurans 6): 0.03 to 0.125 µg/mL
MIC Range ([1]; T. tonsurans 7): 0.015 to 0.06 µg/mL
MIC Range ([1]; T. tonsurans 8): 0.06 to 0.125 µg/mL
MIC Range ([1]; T. tonsurans 9): 0.06 to 0.125 µg/mL
MIC Range ([1]; T. tonsurans 10): 0.015 to 0.06 µg/mL
MIC Range ([1]; T.tonsurans 3): 0.015 to 0.125 µg/mL
MIC [1, 12]: 0.034 µg/mL (≈ 0.117 µM)
MIC [1, 13]: 0.036 µg/mL (≈ 0.124 µM)
MIC [1, 14]: 0.041 µg/mL (≈ 0.141 µM)
MIC [1, 15]: 0.0275 µg/mL (≈ 0.0944 µM)
MIC [1, 16]: 0.048 µg/mL (≈ 0.165 µM)
MIC [1, 17]: 0.05 µg/mL (≈ 0.172 µM)
MIC [1, 18]: 0.061 µg/mL (≈ 0.209 µM)
MIC [1, 19]: 0.071 µg/mL (≈ 0.244 µM)
MIC [1, 20]: 0.038 µg/mL (≈ 0.13 µM)
MIC [1, 21]: 0.045 µg/mL (≈ 0.154 µM)
MIC [1, 22]: 0.068 µg/mL (≈ 0.233 µM)
MIC [1, 23]: 0.07 µg/mL (≈ 0.24 µM)
MIC [1, 24]: 0.077 µg/mL (≈ 0.264 µM)
MIC [1, 25]: 0.081 µg/mL (≈ 0.278 µM)
MIC [1, 26]: 0.035 µg/mL (≈ 0.12 µM)
MIC [1, 27]: 0.038 µg/mL (≈ 0.13 µM)
MIC [1, 28]: 0.051 µg/mL (≈ 0.175 µM)
MIC [1, 29]: 0.037 µg/mL (≈ 0.127 µM)
